Laboratory results from patent publication US12648946B2, “Combination of antibody-pyrrolobenzodiazepine derivative conjugate and PARP inhibitor” (DAIICHI SANKYO COMPANY, LIMITED, priority 2019, dated 2026).

Assays:
[1] = test system: human pharyngeal cancer cell line FaDu; test: Antitumor test (3), subcutaneous xenograft; format: in vivo, mouse; settings: single administration
Description: (§1) Mouse: Five- to six-week-old female BALB/c nude mice (Charles River Laboratories Japan, Inc.) were subjected to experiment. Assay and calculation formula: In all of the studies, the major axis and minor axis of a tumor were measured twice a week by using an electronic digital caliper ([…] Corp.), and the tumor volume (mm^3) was calculated. The calculation formula is as shown below. [formula] Each of the anti-CLDN6 antibody-drug conjugate ADC1, the anti-HER2 antibody-drug conjugate ADC2, and the anti-TROP2 antibody-drug conjugate ADC3 was diluted with ABS buffer (10 mM acetate buffer (pH 5.5), 5% sorbitol), and a liquid volume of 10 mL/kg was intravenously administered into the tail vein. […] LLC)/Dulbecco's Phosphate-Buffered Saline, and then a liquid volume of 10 mL/kg was intraperitoneally administered. […] LLC)/Dulbecco's Phosphate-Buffered Saline, and then a liquid volume of 10 mL/kg was orally administered. Niraparib was dissolved in DMSO, diluted with 0.5% methylcellulose, and then a liquid volume of 10 mL/kg was orally administered. The described method is common to Examples 34 to 37. […]

[2] = test system: human pancreatic cancer cell line CFPAC-1; test: Antitumor test (1), subcutaneous xenograft; format: in vivo, mouse; settings: single administration, talazoparib 0.8 mg/kg oral for 5 days from Day 0, Day 35, CFPAC-1
Description: as §1

Row | SMILES | tumor growth inhibition (TGI) ([1]; olaparib 50 mg/kg i.p. for 5 days from Day 0, Day 25, FaDu) | tumor growth inhibition (TGI) [2] | tumor growth inhibition (TGI) ([1]; talazoparib 0.8 mg/kg oral for 5 days from Day 0, Day 25, FaDu)
1 | O=C(c1cc(Cc2n[nH]c(=O)c3ccccc23)ccc1F)N1CCN(C(=O)C2CC2)CC1 [olaparib, reference compound] | 7% | – | –
2 | Cn1ncnc1[C@H]1c2n[nH]c(=O)c3cc(F)cc(c23)N[C@@H]1c1ccc(F)cc1 [talazoparib] | – | 17% | 33%
